This note sets out measurements from patent publication US11993604B2, “Substituted pyrazolo[4,3-H]quinazolines as protein kinase inhibitors” (SHENGKE PHARMACEUTICALS (JIANGSU) LTD., priority 2017, dated 2024).

Experiment [1] addresses CDK6/cyclin D1 (Homo sapiens, UniProt Q00534). Nature of the experiment: Biochemical kinase inhibition test, CDK6/cyclin D1 (similar method). Conditions: three-fold serial dilution from 10 μM; 10 μM ATP; read-out: CDK6/D1 (nM), enzyme inhibitory activity IC50. How it is done:
Potency determination of biochemical kinase inhibition test. Kinase activity test and IC50 determination. Firstly, 10 ng of recombinant CDK4/Cyclin D1 (Life Technologies PV4204) was diluted in kinase buffer (20 mM Tris pH 7.5, 10 mM MgCl2, 0.01% NP-40, 2 mM DTT), and was incubated with inhibitors at the indicated concentration at room temperature for 30 minutes. The kinase reaction was initiated by adding […] (1.5 μM) of recombinant retinoblastoma protein, 5 μM ATP and 10μ Ci γ-32P-ATP. The reaction was incubated at 30° C. for 20 minutes, and was terminated by adding 2× Laemmli sample buffer, heated at 95° C. for three minutes, and the resulting solution was dissolved with 12% acrylamide SDS-PAGE and autoradiographed. A densitometer (Bio-Rad) was used to quantify the corresponding phosphorylated substrate protein bands. The resulting density values were plotted as a function of the log drug concentration using Prism 4 Graphpad software. IC50 values were determined by plotting a non-linear regression curve with a variable slope.
The inhibitory activity of the compounds disclosed herein against CDK6/cyclin D1 was tested by a similar method.
The compounds were tested in a three-fold serial dilution from the starting concentration of 10 μM, over 10-fold of IC50. The control compound, staurosporine, was tested in a four-fold serial dilution from the starting concentration of 20 μM, over 10-fold of IC50. These reactions took place in the presence of 10 μM ATP.

Experiment [2] has as its target T1, recombinant CDK4/Cyclin D1 (Homo sapiens, UniProt P11802).
T1 construct: purchased Life Technologies PV4204
Nature of the experiment: Biochemical kinase inhibition test, CDK4/Cyclin D1 (32P-ATP, retinoblastoma protein substrate). The note with it: three-fold serial dilution from 10 μM; 10 μM ATP; read-out: CDK4/D1 (nM), enzyme inhibitory activity IC50.

Where a name gives a salt, the structure may show the parent alone. A value given as a limit tells only on which side of the number the result lay.

T1 sequence (P11802 whole entry): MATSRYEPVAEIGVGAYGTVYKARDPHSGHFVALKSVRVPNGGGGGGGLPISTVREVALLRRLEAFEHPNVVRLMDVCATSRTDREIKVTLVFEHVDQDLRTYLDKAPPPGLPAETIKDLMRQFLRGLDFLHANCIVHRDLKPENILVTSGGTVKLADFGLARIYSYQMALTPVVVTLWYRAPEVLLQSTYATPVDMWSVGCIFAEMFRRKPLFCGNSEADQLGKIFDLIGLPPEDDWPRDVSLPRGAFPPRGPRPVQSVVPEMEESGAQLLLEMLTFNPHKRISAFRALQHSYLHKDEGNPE
T1 sequence (P24385 whole entry partner): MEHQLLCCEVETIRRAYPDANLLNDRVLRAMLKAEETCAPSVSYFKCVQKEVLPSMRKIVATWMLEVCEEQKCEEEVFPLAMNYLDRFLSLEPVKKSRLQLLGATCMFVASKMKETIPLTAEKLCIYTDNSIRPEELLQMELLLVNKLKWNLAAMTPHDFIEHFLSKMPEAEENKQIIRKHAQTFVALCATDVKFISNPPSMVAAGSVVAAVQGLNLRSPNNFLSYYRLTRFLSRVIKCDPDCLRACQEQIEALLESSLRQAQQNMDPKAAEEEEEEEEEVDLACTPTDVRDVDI
Chain of CDK6/cyclin D1 (Q00534 whole entry, species assumed): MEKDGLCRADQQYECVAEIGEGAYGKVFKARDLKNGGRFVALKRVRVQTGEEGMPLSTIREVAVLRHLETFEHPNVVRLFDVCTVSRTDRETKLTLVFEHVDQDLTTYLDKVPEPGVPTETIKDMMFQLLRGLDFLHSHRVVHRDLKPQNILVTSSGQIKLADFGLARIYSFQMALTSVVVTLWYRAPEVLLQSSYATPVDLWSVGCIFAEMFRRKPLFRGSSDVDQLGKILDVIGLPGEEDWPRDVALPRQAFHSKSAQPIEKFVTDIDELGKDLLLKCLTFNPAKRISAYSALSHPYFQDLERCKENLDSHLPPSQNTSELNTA
Chain of CDK6/cyclin D1 (P24385 whole entry partner, species assumed): as the sequence (P24385 whole entry partner) above

`CC(C)n1ncc2ccc3cnc(Nc4ccc(N5CCNCC5)cn4)nc3c21` [Compound I-1, 1-isopropyl-N-(5-(piperazin-1-yl)pyridin-2-yl)-1H-pyrazolo[4,3-h]quinazolin-8-amine hydrochloride]: the IC50 in experiment [1] and in experiment [2] was < 1 nM each time.

Take `Cc1nc(Nc2ncc3ccc4cnn(C(C)C)c4c3n2)ccc1N1CCNCC1` [Compound I-2]: the IC50 in experiment [1] and in experiment [2] was 1 to 5 nM throughout.

For `Cc1cc(Nc2ncc3ccc4cnn(C(C)C)c4c3n2)ncc1N1CCNCC1` [Compound I-3], the IC50 in experiment [1] lay in the range of 10 to 20 nM; in experiment [2], 5 to 10 nM.

Regarding `CC(C)n1ncc2ccc3cnc(Nc4ccc(N5CCN(C)CC5)cn4)nc3c21` [Compound I-4], the IC50 in experiment [1] and in experiment [2] was 1 to 5 nM in each case.

For the molecule `Cc1cc(Nc2ncc3ccc4cnn(C(C)C)c4c3n2)ncc1N1CCN(C)CC1` [Compound I-5], the IC50 is 10 to 20 nM in experiment [1] and 5 to 10 nM in experiment [2].

With `Cc1nc(Nc2ncc3ccc4cnn(C(C)C)c4c3n2)ccc1N1CCN(C)CC1` [Compound I-6], the results for the IC50 in experiment [1] and in experiment [2] were < 1 nM and 1 to 5 nM, respectively.

For `CCN1CCN(c2ccc(Nc3ncc4ccc5cnn(C(C)C)c5c4n3)nc2)CC1` [Compound I-7], the IC50 in experiment [1] and in experiment [2] was 1 to 5 nM each time.

In the case of `CCN1CCN(c2cnc(Nc3ncc4ccc5cnn(C(C)C)c5c4n3)cc2C)CC1` [Compound I-8], the IC50 in experiment [1] was in the range of 10 to 20 nM; in experiment [2] it was 5 to 10 nM.

With `CCN1CCN(c2ccc(Nc3ncc4ccc5cnn(C(C)C)c5c4n3)nc2C)CC1` [Compound I-9], the IC50 in experiment [1] is < 1 nM; in experiment [2], 1 to 5 nM.

On to `CC(C)n1ncc2ccc3cnc(Nc4cc(F)c(N5CCNCC5)cn4)nc3c21` [Compound I-10], for which the figures for the IC50 in experiment [1] and in experiment [2] were 10 to 20 nM and 5 to 10 nM, respectively.

Consider `CC(C)n1ncc2ccc3cnc(Nc4ccc(N5CCNCC5)c(F)n4)nc3c21` [Compound I-11], for which the IC50 in experiment [1] lay in the range of 5 to 10 nM; in experiment [2], 1 to 5 nM.

On to `CC(C)n1ncc2ccc3cnc(Nc4ccc(N5CCN[C@@H](C)C5)cn4)nc3c21` [Compound I-12], for which the IC50 in experiment [1] and in experiment [2] was 5 to 10 nM in each case.

As for `CC(C)n1ncc2ccc3cnc(Nc4ccc(N5C[C@@H](C)N[C@@H](C)C5)cn4)nc3c21` [Compound I-13], the IC50 in experiment [1] and in experiment [2] was 5 to 10 nM each time.

On to `CC(C)n1ncc2ccc3cnc(Nc4ccc(N5CCNC(C)(C)C5)cn4)nc3c21` [Compound I-14], for which the IC50 in experiment [1] and in experiment [2] was 10 to 20 nM in each case.

On to `CC(C)n1ncc2ccc3cnc(Nc4ccc(N5CCOCC5)cn4)nc3c21` [Compound I-15], for which the IC50 in experiment [1] and in experiment [2] was 1 to 5 nM throughout.

As for `CC1CN(c2ccc(Nc3ncc4ccc5cnn(C(C)C)c5c4n3)nc2)CCO1` (stereo not shown) [Compound I-16], the IC50 in experiment [1] and in experiment [2] was 5 to 10 nM each time.

`CC(C)n1ncc2ccc3cnc(Nc4ccc(N5C[C@@H](C)O[C@@H](C)C5)cn4)nc3c21` [Compound I-17]: the IC50 in experiment [1] and in experiment [2] was 5 to 10 nM throughout.

Regarding `Cc1nc(Nc2ncc3ccc4cnn(C(C)C)c4c3n2)ccc1N1CCOCC1` [Compound I-18], the IC50 in experiment [1] is < 1 nM; in experiment [2], 1 to 5 nM.

For `Cc1cc(Nc2ncc3ccc4cnn(C(C)C)c4c3n2)ncc1N1CCOCC1` [Compound I-19], the IC50 lay in the range of 10 to 20 nM in experiment [1] and 20 to 50 nM in experiment [2].

On to `Cc1cc(Nc2ncc3ccc4cnn(C(C)C)c4c3n2)ncc1N1CCOC(C)C1` (stereo not shown) [Compound I-20], for which the IC50 in experiment [1] and in experiment [2] was 20 to 50 nM each time.

Turning to `Cc1nc(Nc2ncc3ccc4cnn(C(C)C)c4c3n2)ccc1N1CCOC(C)C1` (stereo not shown) [Compound I-21], the IC50 fell in the range of 10 to 20 nM in experiment [1] and 5 to 10 nM in experiment [2].

Regarding `CC(C)n1ncc2ccc3cnc(Nc4ccc(N5CCCNCC5)cn4)nc3c21` [Compound I-22], the IC50 in experiment [1] and in experiment [2] was 10 to 20 nM each time.

Turning to `CC(C)n1ncc2ccc3cnc(Nc4ccc(N5CCCCC5)cn4)nc3c21` [Compound I-23], the IC50 in experiment [1] and in experiment [2] was 50 to 100 nM throughout.

With `CC(C)n1ncc2ccc3cnc(Nc4ccc(N5CCC(N(C)C)CC5)cn4)nc3c21` [Compound I-24], the IC50 in experiment [1] and in experiment [2] was 20 to 50 nM each time.

In the case of `CC(C)n1ncc2ccc3cnc(Nc4ccc(N5CCC6(CC5)CNC6)cn4)nc3c21` [Compound I-25], the IC50 in experiment [1] and in experiment [2] was 1 to 5 nM each time.

For `CC(C)n1ncc2ccc3cnc(Nc4ccc(N5CC6(CCNCC6)C5)cn4)nc3c21` [Compound I-26], the IC50 in experiment [1] and in experiment [2] was 1 to 5 nM in each case.

In the case of `CC(C)n1ncc2ccc3cnc(Nc4ccc(N5CCC6(CCNCC6)C5)cn4)nc3c21` [Compound I-27], the IC50 in experiment [1] and in experiment [2] was 20 to 50 nM in each case.

As for `CC(C)n1ncc2ccc3cnc(Nc4ccc(N5CCS(=O)(=O)CC5)cn4)nc3c21` [Compound I-28], the IC50 in experiment [1] and in experiment [2] was 10 to 20 nM each time.

On to `Cc1cc(Nc2ncc3ccc4cnn(C(C)C)c4c3n2)ncc1N1CCS(=O)(=O)CC1` [Compound I-29], for which the IC50 in experiment [1] and in experiment [2] was 20 to 50 nM each time.

In the case of `Cc1nc(Nc2ncc3ccc4cnn(C(C)C)c4c3n2)ccc1N1CCS(=O)(=O)CC1` [Compound I-30], the IC50 in experiment [1] and in experiment [2] was 10 to 20 nM each time.

`CC(C)n1ncc2ccc3cnc(Nc4ccc(C(=O)N5CCC(N6CCN(C)CC6)CC5)cn4)nc3c21` [Compound I-31]: the IC50 in experiment [1] and in experiment [2] was 50 to 100 nM in each case.

Regarding `COc1ccc2cc(Nc3ncc4ccc5cnn(C(C)C)c5c4n3)ccc2n1` [Compound I-32], the IC50 in experiment [1] and in experiment [2] was 20 to 50 nM each time.

With `CC(C)n1ncc2ccc3cnc(N4CCC[C@@H]4c4cccc(F)c4)nc3c21` [Compound I-33], the IC50 in experiment [1] and in experiment [2] was 50 to 100 nM in each case.

On to `CC(C)n1ncc2ccc3cnc(N4CCC[C@@H]4c4cc(F)ccc4F)nc3c21` [Compound I-34], for which the IC50 in experiment [1] and in experiment [2] was 50 to 100 nM each time.

As to `c1cc(Nc2ncc3ccc4cnn(C5CCCC5)c4c3n2)ncc1N1CCNCC1` [Compound I-35], the IC50 in experiment [1] and in experiment [2] was 1 to 5 nM throughout.

Take `Cc1cc(Nc2ncc3ccc4cnn(C5CCCC5)c4c3n2)ncc1N1CCNCC1` [Compound I-36]: the IC50 in experiment [1] and in experiment [2] was 10 to 20 nM in each case.

Take `Cc1nc(Nc2ncc3ccc4cnn(C5CCCC5)c4c3n2)ccc1N1CCNCC1` [Compound I-37]: the IC50 in experiment [1] is < 1 nM; in experiment [2], 1 to 5 nM.

For the molecule `CN1CCN(c2ccc(Nc3ncc4ccc5cnn(C6CCCC6)c5c4n3)nc2)CC1` [Compound I-38], the IC50 in experiment [1] lay within 5 to 10 nM; in experiment [2], 1 to 5 nM.

Consider `CCN1CCN(c2ccc(Nc3ncc4ccc5cnn(C6CCCC6)c5c4n3)nc2)CC1` [Compound I-39], for which the IC50 in experiment [1] was 1 to 5 nM; in experiment [2] it was < 1 nM.

Consider `CCN1CCN(c2ccc(Nc3ncc4ccc5cnn(C6CCCC6)c5c4n3)nc2C)CC1` [Compound I-40], for which the IC50 in experiment [1] and in experiment [2] was 1 to 5 nM throughout.

Take `CCN1CCN(c2cnc(Nc3ncc4ccc5cnn(C6CCCC6)c5c4n3)cc2C)CC1` [Compound I-41]: the IC50 in experiment [1] and in experiment [2] was 10 to 20 nM each time.
